Patent US11352354B2, “Substituted penta-fused hexa-heterocyclic compounds, preparation method therefor, drug combination and use thereof” (Xiamen University, priority 2017, dated 2022)
Entries after “also recorded” stand apart in the source; their conditions may differ.

Columns and labels:
MDA-MB-435S = assay: Tumor cell growth inhibition by MTS method, MDA-MB-435S; type: cell-based; settings: Homo sapiens, read-out: Inhibition rate %
Method: (§1) III. Determination of IC50 Value of Compound for Inhibiting Tumor Cell Growth by MTS Method
(§2) 1. Cell plating: cells in logarithmic growth phase were counted and inoculated in a 96-well plate (20000 cells per well).
(§3) 2. Administrating agent to cell: 10 mM compound mother solution in DMSO was subjected to 3 fold-gradient dilution, to set 8 concentrations, which were then added to various wells, with three replicates for each concentration, and three blank wells (only culture medium) and three negative controls (containing 0.1% DMSO) on each plate.
(§4) 3. […] The OD value at 490 nm was measured with microplate reader OD490. The cell growth inhibition rate was calculated by the following formula: Cell growth inhibition rate %=1−(ODexperimental group−ODblank group)/(ODnegative group−ODblank group)×100%

A549 = assay: Tumor cell growth inhibition by MTS method, A549; type: cell-based; settings: Homo sapiens; A549, 3.3 μM; read-out: Inhibition rate %
Method: as §1, §2, §3, §4

SK-MEL-30 = assay: Tumor cell growth inhibition by MTS method, SK-MEL-30; type: cell-based; settings: Homo sapiens; SK-MEL-30, 3.3 μM; read-out: Inhibition rate %
Method: as §1, §2, §3, §4

A375 = assay: Tumor cell growth inhibition by MTS method, A375; type: cell-based; settings: Homo sapiens, A-375; A375, 3.3 μM; read-out: Inhibition rate %
Method: as §1, §2, §3, §4

MCF-7 = assay: Tumor cell growth inhibition by MTS method, MCF-7; type: cell-based; settings: Homo sapiens, MCF7; MCF-7, 3.3 μM; read-out: Inhibition rate %
Method: as §1, §2, §3, §4

BGC823 = assay: Tumor cell growth inhibition by MTS method, BGC823; type: cell-based; settings: Homo sapiens, BGC-823; BGC823, 3.3 μM; read-out: Inhibition rate %
Method: as §1, §2, §3, §4

MDA-MB-231 cells = assay: Vacuolation of MDA-MB-231 cells caused by inhibition of compounds on PIKfyve (microscopy); type: cell-based; settings: MDA-MB-231 cells; further: key: '+' represents the degree of vacuolation; ++: more '+' indicates more obvious vacuolation; +++: more '+' indicates more obvious vacuolation; ++++: more '+' indicates more obvious vacuolation; '−' represents no vacuolation
In short: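 MDA-MB-231 cells in 12-well plates at 37 °C, 5% CO2 were observed by microscopy after 24 and 48 h of culture for cytoplasmic vacuolation as a readout of PIKfyve inhibition. Scoring was semi-quantitative, from − (none) to increasing +.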

MDA-MB-231 = assay: Tumor cell growth inhibition by MTS method, MDA-MB-231; type: cell-based; settings: Homo sapiens; MDA-MB-231, 3.3 μM; read-out: Inhibition rate %
Method: as §1, §2, §3, §4

SK-MEL-28 = assay: Tumor cell growth inhibition by MTS method, SK-MEL-28; type: cell-based; settings: Homo sapiens; SK-MEL-28, 3.3 μM; read-out: Inhibition rate %
Method: as §1, §2, §3, §4

HepG2 = assay: Tumor cell growth inhibition by MTS method, HepG2; type: cell-based; settings: Homo sapiens; HepG2, 3.3 μM; read-out: Inhibition rate %
Method: as §1, §2, §3, §4

HCT116 = assay: Tumor cell growth inhibition by MTS method, HCT116; type: cell-based; settings: Homo sapiens, HCT-116; HCT116, 3.3 μM; read-out: Inhibition rate %
Method: as §1, §2, §3, §4

JeKo-1 cells [1] = assay: Tumor cell growth inhibition by MTS method, JeKo-1; type: cell-based; settings: Homo sapiens, JeKo-1, 120 h, 5 days of culture
In short: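 Cells seeded at 20000 per well, treated with 8-point 3-fold dilutions from 10 mM DMSO stock in triplicate, 0.1% DMSO controls. MTS read at OD490; IC50 from inhibition rates, or % inhibition at 10 μM.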

MDA-MB-231 xenograft = assay: Xenograft model of triple negative breast cancer cells (MDA-MB-231) in nude mice; type: in vivo
Method: 1. 4-6 weeks old female nude mice were injected subcutaneously with about 5×10^6 MDA-MB-231 cells;
2. When tumor volume (length×width×height×0.5) reached about 100 mm^3, the mice were randomly divided into three groups: control group, group with a dose of 5 mg/kg once a day, and group with a dose of 20 mg/kg once a day, and the initial tumor volume was recorded.
3. The drug or the control solvent was administered intravenously on time every day, the tumor volume was measured every day, and the procedures were continued for 12 days;
(§5) 4. In the last day, the mice were killed 6 hours after administration, the tumor grown under skin was completely peeled off, and the tumor weight was recorded.

JeKo-1 xenograft = assay: Xenograft model of non-Hodgkin's lymphoma cells (JeKo-1) in nude mice; type: in vivo; settings: 25 mg/kg once a day or twice a day
Method: 1. 4-6 weeks old female nude mice were injected subcutaneously with about 1×10^7 JeKo-1 cells;
2. When tumor volume (length×width×height×π/4) reached about 100 mm^3, the mice were randomly divided into four groups: control group, V-c-17 group with a dose of 25 mg/kg once a day, V-c-17 group with a dose of 25 mg/kg twice a day, and apilimod group with a dose of 25 mg/kg once a day, and the initial tumor volume was recorded.
3. The drug or the control solvent was administered intravenously on time every day, the tumor volume was measured every day, and the procedures were continued for 7 days;
as §5

PIKfyve protein = PIKfyve protein (Homo sapiens (Human), UniProt Q9Y2I7); assay: Dissociation equilibrium constant (Kd) of compound and PIKfyve protein, DiscoverX KINOMEscan; type: binding; settings: eleven 3-fold dilutions, curve fitting
Chain of PIKfyve protein (Q9Y2I7 whole entry): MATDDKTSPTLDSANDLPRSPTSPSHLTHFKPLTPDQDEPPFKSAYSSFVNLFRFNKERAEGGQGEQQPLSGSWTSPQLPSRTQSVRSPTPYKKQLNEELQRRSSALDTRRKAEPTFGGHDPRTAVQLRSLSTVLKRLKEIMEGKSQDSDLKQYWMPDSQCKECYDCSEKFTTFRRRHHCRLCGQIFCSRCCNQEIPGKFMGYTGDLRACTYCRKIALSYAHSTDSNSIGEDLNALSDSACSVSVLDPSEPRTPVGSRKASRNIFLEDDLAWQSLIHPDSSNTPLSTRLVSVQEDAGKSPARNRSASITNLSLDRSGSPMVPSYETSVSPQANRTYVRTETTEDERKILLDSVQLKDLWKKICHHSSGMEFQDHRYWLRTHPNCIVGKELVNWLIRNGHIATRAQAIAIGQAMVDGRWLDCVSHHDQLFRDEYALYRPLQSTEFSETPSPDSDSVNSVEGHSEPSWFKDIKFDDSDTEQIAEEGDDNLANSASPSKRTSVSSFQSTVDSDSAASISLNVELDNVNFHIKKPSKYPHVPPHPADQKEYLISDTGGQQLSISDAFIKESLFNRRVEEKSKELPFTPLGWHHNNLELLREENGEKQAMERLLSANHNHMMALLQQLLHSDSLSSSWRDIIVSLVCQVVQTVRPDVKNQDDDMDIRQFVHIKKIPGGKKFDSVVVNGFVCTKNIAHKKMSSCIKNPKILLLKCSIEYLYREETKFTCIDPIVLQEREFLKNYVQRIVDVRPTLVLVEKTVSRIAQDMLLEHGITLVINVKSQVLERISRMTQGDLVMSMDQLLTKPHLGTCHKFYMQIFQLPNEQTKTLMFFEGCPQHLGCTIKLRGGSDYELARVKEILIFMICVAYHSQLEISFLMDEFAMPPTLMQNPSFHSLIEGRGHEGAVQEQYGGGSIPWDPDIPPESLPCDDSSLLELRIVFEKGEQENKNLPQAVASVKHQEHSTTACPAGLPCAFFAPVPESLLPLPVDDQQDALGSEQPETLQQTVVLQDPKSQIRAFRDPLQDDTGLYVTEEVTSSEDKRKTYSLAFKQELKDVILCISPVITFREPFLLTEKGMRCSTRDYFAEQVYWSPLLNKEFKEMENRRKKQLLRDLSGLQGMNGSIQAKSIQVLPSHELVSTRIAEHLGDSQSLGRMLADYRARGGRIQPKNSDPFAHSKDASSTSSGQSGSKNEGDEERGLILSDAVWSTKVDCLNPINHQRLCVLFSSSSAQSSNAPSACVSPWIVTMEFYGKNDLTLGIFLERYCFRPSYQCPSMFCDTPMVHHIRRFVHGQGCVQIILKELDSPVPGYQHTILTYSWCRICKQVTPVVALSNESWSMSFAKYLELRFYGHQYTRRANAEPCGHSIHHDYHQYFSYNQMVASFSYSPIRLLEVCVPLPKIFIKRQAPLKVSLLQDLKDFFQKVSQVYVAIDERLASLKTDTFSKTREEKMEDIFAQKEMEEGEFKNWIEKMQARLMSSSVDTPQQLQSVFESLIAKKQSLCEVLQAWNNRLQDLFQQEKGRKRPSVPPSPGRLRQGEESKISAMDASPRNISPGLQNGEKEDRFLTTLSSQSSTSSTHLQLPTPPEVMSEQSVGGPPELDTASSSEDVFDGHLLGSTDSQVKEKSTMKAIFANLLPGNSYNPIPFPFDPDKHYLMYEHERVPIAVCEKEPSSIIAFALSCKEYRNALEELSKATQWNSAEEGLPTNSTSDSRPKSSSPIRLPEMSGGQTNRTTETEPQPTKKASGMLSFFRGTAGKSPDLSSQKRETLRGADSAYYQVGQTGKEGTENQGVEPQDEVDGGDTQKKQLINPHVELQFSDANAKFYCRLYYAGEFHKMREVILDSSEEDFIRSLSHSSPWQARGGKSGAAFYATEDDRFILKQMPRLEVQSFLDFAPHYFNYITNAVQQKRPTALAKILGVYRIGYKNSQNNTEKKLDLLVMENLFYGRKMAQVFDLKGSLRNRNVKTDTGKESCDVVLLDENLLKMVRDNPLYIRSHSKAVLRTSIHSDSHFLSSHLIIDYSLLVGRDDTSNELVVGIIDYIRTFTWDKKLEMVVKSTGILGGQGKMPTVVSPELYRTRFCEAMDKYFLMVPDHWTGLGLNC
Method: II. Determination of Dissociation Equilibrium Constant (Kd Value) of Compound and PIKfyve Protein
The Kd value was determined by DiscoverX's KINOMEscan™ technology according to the following steps:
1. Preparation of magnetic beads: biotin-labeled small molecule ligand and avidin-coated magnetic beads were allowed to interact at room temperature for 30 minutes, and then added with excess biotin, followed by washing with a blocking solution (1% BSA, 0.05% Tween 20, 1 mM DTT) to remove unbound ligand.
2. Binding reaction: in a 384 plate, 0.02 mL system, DNA-labeled protein, small molecule ligand-bound magnetic beads, and different concentrations of compound to be tested were mixed in a reaction solution (0.17×PBS, 0.05% Tween 20, 6 mM DTT) at room temperature with shaking for 1 hr, to which was added an eluant (1×PBS, 0.05% Tween 20) for elution. Magnetic beads were resuspended by an eluant (1×PBS, 0.05% Tween 20, 0.5 μM non-biotin-labeled small molecule ligand), and shaken at room temperature for 30 min before separating out the eluant.
3. Determination of Kd value: the content of protein in the above eluate was determined by qPCR. Eleven 3-fold dilution concentrations were determined for the compound to be tested, with 3 DMSO controls for each concentration, and the Kd value was obtained by curve fitting.

ST486 cells = assay: Growth inhibition of PIKfyve-mediated tumor cells by Cell Titer Glo method, ST486; type: cell-based; settings: Homo sapiens, 120 h, CellTiter-Glo, 5 days of culture, read-out: Inhibition rate % (ST486)
Method: (§6) IV. Determination of Growth Inhibition Rates of Compounds Against PIKfyve-Mediated Tumor Cells by Cell Titer Glo Method
(§7) 1. Cell plating: cells in logarithmic growth phase were counted and inoculated in 384-well plate.
(§8) 3. […] RLU was measured on PHERAstar Plus.

Toledo cells = assay: Growth inhibition of PIKfyve-mediated tumor cells by Cell Titer Glo method, Toledo; type: cell-based; settings: Homo sapiens, 120 h, CellTiter-Glo, 5 days of culture, read-out: Inhibition rate % (Toledo)
Method: as §6, §7, §8

JeKo-1 cells [2] = assay: Lysosomal dysfunction caused by inhibition of PIKfyve, Western Blot of cathepsins in JeKo-1 cells; type: cell-based; settings: treatment for 24 hr, FIG. 3
Description: V. Lysosomal Dysfunction Caused by Inhibition of Compound V-c-17 on PIKfyve (FIG. 3)
After treatment with V-c-17 for 24 hr, JeKo-1 cells were lysed and tested by Western Blot. […] This was similar to the treatment result with the known PIKfyve inhibitor apilimod.

**Q.** How did the inhibition at 3.3 µM (MDA-MB-435S) turn out when `Cc1ccc(NC(=O)c2cccc(C(F)(F)F)c2)cc1Nc1cc(-c2cccnc2)nc2[nH]ccc12` [I-a-1] was run?
**A.** The inhibition at 3.3 µM was 56.2%.

**Q.** What about the inhibition at 3.3 µM (A549) of the same molecule?
**A.** The inhibition at 3.3 µM was 65.3%.

**Q.** And the inhibition at 3.3 µM (SK-MEL-30)?
**A.** The inhibition at 3.3 µM was 61.9%.

**Q.** What about the inhibition at 3.3 µM (A375) of the same molecule?
**A.** The inhibition at 3.3 µM was 94%.

**Q.** What about the inhibition at 3.3 µM (MCF-7) of the same molecule?
**A.** The inhibition at 3.3 µM was 44.2%.

**Q.** What about the inhibition at 3.3 µM (BGC823) of the same molecule?
**A.** Its inhibition at 3.3 µM is 54%.

**Q.** And the “degree of vacuolation, 1 μM, 24 h” value (MDA-MB-231 cells)?
**A.** The value was “+++”.

**Q.** What about the “degree of vacuolation, 1 μM, 48 h” value (MDA-MB-231 cells) of the same molecule?
**A.** The value was “+++”.

**Q.** What about the “degree of vacuolation, 10 μM, 24 h” value (MDA-MB-231 cells) of the same molecule?
**A.** Its value is “+++”.

**Q.** And the “degree of vacuolation, 10 μM, 48 h” value (MDA-MB-231 cells)?
**A.** Its value is “+++”.

**Q.** What about the inhibition at 3.3 µM (MDA-MB-231) of the same molecule?
**A.** Its inhibition at 3.3 µM is 48.4%.

**Q.** And the inhibition at 3.3 µM (SK-MEL-28)?
**A.** Its inhibition at 3.3 µM is 64%.

**Q.** And the inhibition at 3.3 µM (HepG2)?
**A.** The inhibition at 3.3 µM was 64.8%.

**Q.** What about the inhibition at 3.3 µM (HCT116) of the same molecule?
**A.** Its inhibition at 3.3 µM is 55.8%.

**Q.** What about the IC50 (JeKo-1 cells [1]) of the same molecule?
**A.** The IC50 was 2040 nM.

**Q.** And the tumor volume (MDA-MB-231 xenograft; MDA-MB-231 xenograft mice, tail vein, 5 mg/kg, 20 mg/kg every day, FIG. 4a)?
**A.** The tumor volume was “effectively inhibit the increase of tumor volume, with good dose dependence”.

**Q.** And the final tumor weight (MDA-MB-231 xenograft; MDA-MB-231 xenograft mice, tail vein, 5 mg/kg, 20 mg/kg every day, FIG. 4b)?
**A.** Its final tumor weight is “significantly smaller than that in the control group, with good dose dependence”.

**Q.** What about the tumor growth (MDA-MB-231 xenograft; MDA-MB-231 xenograft, nude mice, intravenous, 5 mg/kg and 20 mg/kg once a day, 12 days, FIG. 4) of the same molecule?
**A.** The tumor growth was “Effectively Inhibited Tumor Growth”.

**Q.** With `COc1ccc(C(=O)Nc2cccc(C(F)(F)F)c2)cc1Nc1nc(-c2cccnc2)c2[nH]ccc2n1` [V-c-17] as the molecule, how does the “degree of vacuolation, 1 μM, 24 h” value (MDA-MB-231 cells) read?
**A.** The value was “++”.

**Q.** What about the “degree of vacuolation, 1 μM, 48 h” value (MDA-MB-231 cells) of the same molecule?
**A.** The value was “−”.

**Q.** What about the “degree of vacuolation, 10 μM, 24 h” value (MDA-MB-231 cells) of the same molecule?
**A.** The value was “++”.

**Q.** What about the “degree of vacuolation, 10 μM, 48 h” value (MDA-MB-231 cells) of the same molecule?
**A.** The value was “+”.

**Q.** And the tumor volume (JeKo-1 xenograft; JeKo-1 xenograft mice, tail vein, FIG. 5a)?
**A.** Its tumor volume is “effectively inhibit the increase of tumor volume, with good dose dependence”.

**Q.** What about the final tumor weight (JeKo-1 xenograft; JeKo-1 xenograft mice, tail vein, FIG. 5b) of the same molecule?
**A.** Its final tumor weight is “significantly smaller than that in the control group, with good dose dependence”.

**Q.** What about the tumor growth (JeKo-1 xenograft; JeKo-1 xenograft, nude mice, intravenous, 7 days, FIG. 5) of the same molecule?
**A.** The tumor growth was “Effectively Inhibited Tumor Growth”.

**Q.** And the Kd (PIKfyve protein)?
**A.** The Kd was 640 nM.

**Q.** And the inhibition at 3.3 µM (ST486 cells)?
**A.** The inhibition at 3.3 µM was 95.7%.

**Q.** What about the IC50 (JeKo-1 cells [1]) of the same molecule?
**A.** Its IC50 is 743 nM.

**Q.** And the inhibition at 3.3 µM (Toledo cells)?
**A.** Its inhibition at 3.3 µM is 99.7%.

**Q.** And the “immature cathepsin A and cathepsin D (Western Blot)” value (JeKo-1 cells [2])?
**A.** The value was “immature cathepsins A and D gradually increase, with good dose dependence; also recorded: immature cathepsin A and cathepsin D increased, and had good concentration dependence”.
